Data set [1] is described as follows: Field dicamba volatility, airborne dicamba collected by air samplers (Example 34). It counts as physicochemical. The following applies: field plot, 0.5 lb/acre dicamba a.e. with ROUNDUP WEATHERMAX, airborne dicamba collected over 24 hours, maximum 86° F.
Data set [2] in a line: In vitro dicamba photo-release from photo-labile dicamba esters, acetonitrile/10% water solvent (Example 27). It counts as physicochemical. The following applies: acetonitrile containing 10% water. The method, then: This Example describes in vitro testing of dicamba photo-release by homogeneous solutions of photo-labile dicamba esters. The esters were dissolved in tetrahydrofuran (THF). Ester concentration was 0.1 mM. 25 ml of the solution was transferred to 22 mm tubes fabricated from graded seal quartz tubing with a 19/22 tapered seal at the top, which was closed with a tapered glass plug and secured with a plastic ring clamp. The solution was entirely below the quartz-to-glass transition, ensuring that the entire volume was exposed to the full spectrum.
The sealed tubes were placed in a Growth Chamber where they were exposed to simulated sunlight for 14 hours per day at 35° C. Dicamba concentrations in the solution were measured during the course of the photolysis.
A sample of the initial solution was reserved in a glass vial away from the light source and analyzed at the conclusion of the study, providing a measurement of the amount of dicamba present without illumination of the photolysis solution (the “dark control”).
This Example is another photolysis of photo-labile dicamba esters, but using acetonitrile containing 10% water by weight as the solvent. The experimental protocol is otherwise the same as in Example 18.

For another data set, the system named is velvetleaf. Nature of the data set: Greenhouse post-emergent control of velvetleaf by emulsifiable concentrates (Example 30). It counts as in vivo. The method, then:
The efficacy of some photo-labile ester formulations from Example 28 for post-emergent control of velvetleaf was tested in the greenhouse. All formulations were tested at rates of 140, 280, 420, and 560 g dicamba equivalent per hectare rates and compared to the diglycolamine salt of dicamba (CLARITY®) at the same rates and untreated control plants. The velvetleaf plants were 10-15 cm in height at the time of spraying. Percent control was evaluated three weeks after treatment.
The methodology of Example 29 was used to evaluate the efficacy of several photo-labile esters of dicamba for post-emergent control of velvetleaf as emulsifiable concentrate formulations described in Example 28.

As to `COc1c(Cl)ccc(Cl)c1C(=O)OCc1ccccc1[N+](=O)[O-]` [Ester 1a, 2-Nitrobenzyl Ester of Dicamba], in data set [1], the “average dicamba level from the five air samplers” value was found to be 1.2 ng/m^3.
Consider `COc1c(Cl)ccc(Cl)c1C(=O)OCCc1ccccc1[N+](=O)[O-]` [Ester 2, 2-Nitrophenethyl Ester of Dicamba], for which the “Dark Control % dicamba” value in data set [2] (no illumination) is recorded as 0%. Also, the “Conversion to dicamba, 1 day” value in data set [2] (simulated sunlight, 1 day) was 33%. Also, the “Conversion to dicamba, 2 days” value in data set [2] (simulated sunlight, 2 days) is reported as 56%. Besides, in data set [2] (simulated sunlight, 3 days), the “Conversion to dicamba, 3 days” value is on record as 75%. Further, the “Conversion to dicamba, 5 days” value in data set [2] (simulated sunlight, 5 days) was 93%. For the same compound, in data set [2] (simulated sunlight, 7 days), the “Conversion to dicamba, 7 days” value was 104%. In data set [2] (simulated sunlight, 11 days), the “Conversion to dicamba, 11 days” value is 107%. For the same compound, in data set [2] (simulated sunlight, 13 days), the “Conversion to dicamba, 13 days” value is reported as 108%. Further, the “Conversion to dicamba, 15 days” value in data set [2] (simulated sunlight, 15 days) was 96%. The “Conversion to dicamba, 19 days” value in data set [2] (simulated sunlight, 19 days) is 106%.
Take `COc1c(Cl)ccc(Cl)c1C(=O)Oc1cnc2ccccc2n1` [Ester 13a, 2-quinoxalinol ester of dicamba]: in the data set with velvetleaf (140 g/ha), the “% Control of velvetleaf, 140 g/ha” value is listed as 44%. In addition, the “% Control of velvetleaf, 280 g/ha” value in the data set on velvetleaf (280 g/ha) turned out to be 69%. Besides, the “% Control of velvetleaf, 420 g/ha” value in the data set with velvetleaf (420 g/ha) is given as 70%. Further, the “% Control of velvetleaf, 560 g/ha” value in the data set with velvetleaf (560 g/ha) is reported as 83%.

The record behind these values is US20170029355A1, “LABILE ESTERS OF AGROCHEMICALS FOR CONTROLLED RELEASE AND REDUCTION OF OFF-SITE MOVEMENT” (Monsanto Technology LLC, priority 2011, published 2017).
